The record followed here is a melting point compilation (Tetko et al.).

Structures are written as SMILES.

The melting point is the temperature of the solid-liquid transition. `Cc1ccc(N2C(=O)C=CC2=O)cc1Cl` showed a melting point of 143 °C. The figure for `Oc1ccc(Cl)c(C(F)(F)F)c1` is 44 °C; for `Cc1cc(-c2cc(C)c(O)c(C)c2)cc(C)c1O` it is 222 °C. The figure for `Nc1cc(S(=O)(=O)F)ccc1Cl` is 64 to 68 °C. The figure for `CC(=O)c1ccc(C)c(C)c1` is -3 °C.

Regarding `Ic1ccccc1CN1CCOCC1`, the melting point was 46 to 48 °C. In the case of `CS(=O)(=O)c1ccccc1S(=O)(=O)Cl` it was 133 to 138 °C; in that of `Clc1ccc(CC(=CCN2CCCC2)c2ccccc2)cc1`, 48.5 °C. In the case of `OCC(O)CN1CCN(c2ccccc2)CC1` (stereo unspecified) it was 105 °C; in that of `Nc1cc(F)ccc1F`, 14 °C; in that of `COc1c(F)cc(CBr)cc1F`, 41 °C. In turn, `CC(=O)OC[C@H]1O[C@@H](OC(C)=O)[C@H](NC(=O)OCc2ccccc2)[C@@H](OC(C)=O)[C@@H]1OC(C)=O` came in with a melting point of 150 °C. In the case of `Cc1ccc(Br)c([N+](=O)[O-])c1` it was 31 °C. In the case of `CCOC(=O)c1ccc(F)cc1` it was 26 °C.

`O=C(O)c1cccc(N2CCCCC2)n1` gave a melting point of 98 to 101 °C. The figure for `CC1CCC(C(C)C)C(OC(=O)C(Cc2ccccc2)c2ccccc2)C1` (stereo unspecified) is 101 °C; for `COc1ccc(CN)c(F)c1F` it is 34 °C; for `CC(=O)C=CC1=C(C)CCCC1(C)C` it is -49 °C. The figure for `CCCCCCCCc1ccc(C(Cl)=Cc2ccc(OCC)cc2)cc1` is 32 °C; for `N#Cc1cc2c(=O)oc3ccccc3c2nc1N` it is 289 °C. The figure for `CC(C)(C)OCC1CO1` (stereo unspecified) is -70 °C; for `CC(C)(OO)c1ccccc1` it is -9 °C; for `FC(F)OCC(F)(F)C(F)(F)F` it is -107 °C. In the case of `O=C(OCC1CCC2OC2C1)C1CCC2OC2C1` (stereo unspecified), the melting point was -37 °C. In the case of `O=C(O)CNC(=O)OCC1c2ccccc2-c2ccccc21` it was 174 to 178 °C; in that of `Cc1nn(C)c(C)c1I`, 72 to 74 °C; in that of `CCCCCCCOc1ccc(-c2ccc(C#N)cc2)cc1`, 54 °C. The compound `CNC(=O)Oc1ccc2c(c1)C1(C)CCOC1N2C` (stereo unspecified) displayed a melting point of 124 °C. In the case of `CC(=O)SCC(C)C(=O)N1CCCC1C(=O)O` (stereo unspecified) it was 76 to 82 °C. The figure for `CCCCCCCNC(=O)OCC1OC(OC)C(O)C(O)C1O` (stereo unspecified) is 103 to 105 °C; for `Cc1cc(C)c(CC(=NOCC(=O)O)c2cc3ccccc3o2)c(C)c1` it is 143 to 144 °C; for `OC1OC2COC(c3ccccc3)OC2C(O)C1O` (stereo unspecified) it is 173 to 174 °C. The figure for `CC(=O)OC1CC2C(C)C(=O)C3(C(O)CC4C5(C)CCCC4(C(O)OC5)C13)C2O` (stereo unspecified) is 220 °C; for `COc1cc(C(=O)OCCCl)cc(OC)c1OC` it is 69 °C.

For the compound `O=[N+]([O-])c1ccc2c(c1)=[N+]([O-])C1(CCCC1)[N+]=2[O-]`, the melting point was 148 to 150 °C.

With `c1cc(N2CCNCC2)ccn1`, the melting point is 142 to 144 °C. The compound `CC1(C)OC(=O)C(=Cc2ccc(Br)o2)C(=O)O1` registered a melting point of 116 °C. The figure for `CC1Sc2ccc(Cl)cc2-c2nc(N)ncc21` (stereo unspecified) is 181 to 183 °C; for `Cc1cc(C)n2nc(N)c(/N=N/c3ccncc3)c2n1` it is 228 °C. In the case of `O=C(Cl)c1cccc2c1OCC2` it was 55 to 61 °C; in that of `Cc1nnc(SCC2=C(C(=O)O)N3C(=O)C(NC(=O)Cn4cnnn4)C3SC2)s1` (stereo unspecified), 198 °C; in that of `O=[N+]([O-])c1cccnc1Oc1cncc(Cl)c1`, 104 to 105 °C. The figure for `CCOC(=O)CCC(=O)O` is 8 °C; for `CC(=O)c1cc(C)c(Br)cc1O` it is 88 °C; for `C[C@@]12CCC=C1[C@@H]1CC[C@@H]3C[C@H](O)CC[C@]3(C)[C@H]1CC2` it is 129 to 130 °C. In turn, `Cc1ccccc1C1Cc2ccccc2C(O)O1` (stereo unspecified) came in with a melting point of 100 to 109 °C.

In the case of `CC(=O)OCC#CCOC(C)=O`, the melting point turned out to be 28 °C. As to `CCOC(=O)c1c(-c2ccc(F)cc2)csc1N`, the melting point was 92.5 to 95.5 °C. Take `ICCCCCCI`: the melting point came to 9.5 °C. The figure for `CC1=C(c2ccccc2)Cc2ccccc21` is 75 °C; for `CC(=O)Nc1ccc(O)cc1` it is 169 °C. The figure for `O=C(O)c1cc(S(=O)(=O)O)ccc1O` is 120 °C; for `CC(O)c1ccc2ccccc2c1` (stereo unspecified) it is 74 °C; for `O=C1C2=C(O)CCCC2Cc2ccccc21` (stereo unspecified) it is 79 °C.

On to `CC1(C)C(C(=O)c2ccccc2)=Nc2ccccc21`, for which the melting point came to 83 °C.

Take `Nc1nnc(-c2ccccc2)c(Nc2ccc(I)cc2)n1`: the melting point is 389 °C. `CC(=O)CCc1ccc2c(c1)N(C(=O)c1ccccc1)C(C)CC2` (stereo unspecified) had a melting point of 74 °C. In the case of `COc1cccc(F)c1` it was -35 °C. The figure for `CC1(C)CC(=O)c2cc(-c3ccccc3)n(-c3ccc(Cl)c(Cl)c3)c2C1` is 167 to 169 °C; for `O=C(O)CN(CC(=O)O)CC(=O)O` it is 245 °C; for `Oc1cc(Br)cc(Br)c1` it is 81 °C. In the case of `CC(C(=O)O)N(C)C(=O)OC(C)(C)C` (stereo unspecified) it was 90 °C.

In turn, `N#Cc1c(C(F)(F)F)cc(-c2cccs2)[nH]c1=O` showed a melting point of 293 to 295 °C. In the case of `CCOC(=O)C(C#N)=NO` it was 130 °C. The figure for `N#Cc1ccc(Cl)c(C(F)(F)F)c1` is 66 °C. In the case of `CCCCCCCC(=O)Oc1c(I)cc(C#N)cc1I` it was 59.5 °C; in that of `Clc1cccc(Cl)c1N=C1NCCN1`, 130 °C. In turn, `O=C1C=CC2=CC(=O)C=CC(=C1)C2` had a melting point of 122 °C. For the compound `CCN(CCO)c1ccc(N=Nc2ccc([N+](=O)[O-])cc2)cc1`, the melting point was found to be 161 °C. The figure for `CC(C)C(N)CC(=O)O` (stereo unspecified) is 206 to 209 °C. The compound `C1CCC(P(C2CCCCC2)C2CCCCC2)CC1` returned a melting point of 77 to 83 °C.

`Cn1ccc2c(C=O)cccc21` showed a melting point of 27 to 29 °C. The figure for `CCC(C)OC` (stereo unspecified) is -100 °C; for `NCCCC(O)(P(=O)(O)O)P(=O)(O)O` it is 234 °C; for `OCc1ccc2ncccc2c1` it is 79 to 80 °C. In the case of `CC(C)N(C=O)C(C)C` it was 10 to 11 °C; in that of `C=C1CC23CC1(O)CCC2C12C=CC(O)C(C)(C(=O)O1)C2C3C(=O)O` (stereo unspecified), 227 °C; in that of `C[C@H](OC(=O)Nc1ccccc1)C(=O)O`, 137 to 142 °C.

Take `Cc1cc(C(F)(F)F)n2nc(N)c(/N=N/c3c(Br)cc(Br)cc3Br)c2n1`: the melting point lay within 98 to 100 °C.

For the compound `N#Cc1cccc(-n2cccc2C=O)c1`, the melting point is 139 to 141 °C. In the case of `C=CCC1(O)CCC2C3CCC4=CCCCC4C3CCC21C` (stereo unspecified) it was 80 °C.

`Cc1ncc([N+](=O)[O-])n1CCCN1C(=O)c2ccccc2C1=O` displayed a melting point of 168 to 169 °C. As for `O=C1CCCCCC1c1ccccc1` (stereo unspecified), the melting point fell in the range of 21 to 23 °C. The figure for `Clc1nccc(-c2cccs2)n1` is 127 to 129 °C; for `Cc1ccc2c(C)c(C)ccc2c1` it is 14 °C; for `COCCOC(=O)c1ccccc1C(=O)OCCOC` it is -45 °C.

The compound `CCOC(=O)c1sc2sc(C(=O)OCC)c(N=C3SCCS3)c2c1N=C1SCCS1` registered a melting point of 198 °C. The figure for `N#Cc1ccc(O)c(Br)c1` is 158 °C; for `OC(Cc1ccccc1)C(Cc1ccccc1)=NNc1ccc(Br)cc1` (stereo unspecified) it is 139 °C. The figure for `CC1CC(O)CC(C)(C)C1` (stereo unspecified) is 55.8 °C; for `O=S(=O)(Cl)c1cc(Cl)cc(Cl)c1` it is 53 to 57 °C. The figure for `COc1ccc(-c2cc3nc(C)cc(C(F)(F)F)n3n2)cc1` is 167 °C; for `Cc1cc(O)nc(O)c1` it is 197 °C; for `COC(=O)C12ON1c1ccccc1C2=O` (stereo unspecified) it is 221 °C.

As for `COC(=O)C=Cc1ccc(C=CC(=O)OC)c([N+](=O)[O-])c1`, the melting point worked out at 166 °C. In turn, `COC(=O)N/C=C/c1ccccc1[N+](=O)[O-]` displayed a melting point of 146 to 148 °C. In the case of `CC12CCC3C4CCC(=O)C=C4CCC3C1CCC2OC(=O)CCc1ccccc1` (stereo unspecified) it was 118 °C; in that of `O=C(C1=NN(c2ccccc2)C2C(=O)N(c3ccc(F)cc3)C(=O)C12)c1ccccc1` (stereo unspecified), 211 °C; in that of `O=[N+]([O-])c1cc([N+](=O)[O-])c(C(Cl)=Cc2ccccc2)cc1/C=C\c1ccccc1`, 191 °C. The compound `Cc1ccc(C(=O)NCC(=O)O)cc1` came in with a melting point of 162 to 166 °C. In the case of `CC(=CNNc1nc(C)cc(C)n1)c1ccccn1` it was 142 to 145 °C; in that of `N#Cc1c(C(F)(F)F)cc(Nc2cccc([N+](=O)[O-])c2)nc1Cl`, 276 to 279 °C.

Take `CCOP(=S)(OCC)Oc1ccc([N+](=O)[O-])cc1`: the melting point is 6.1 °C.

`O=C=Nc1cccc(COc2ccccc2)c1` showed a melting point of 51 to 53 °C.

In the case of `CC(C)(C)OC(=O)N[C@@H](CCCCN)C(=O)O`, the melting point amounted to 205 °C. The figure for `NS(=O)(=O)c1c(Cl)cc(Cl)cc1Cl` is 180 °C; for `O=[N+]([O-])c1cc(C(F)(F)F)c(Cl)cc1Cl` it is 55 °C; for `CN1CCN(c2ccc(C(=O)O)cc2)CC1` it is 270 °C. The figure for `C[Si](C)(Cl)O[Si](C)(C)O[Si](C)(C)Cl` is -53 °C; for `CCOC(=O)COc1ccc2c(=O)cc(-c3ccccc3)oc2c1` it is 124 °C; for `O=C(OC(=O)C(Cl)Cl)C(Cl)Cl` it is 29 °C.
